{
  "source": "patent US20060008520A1",
  "about": "“Delayed release formulations of 6-mercaptopurine” (priority 2004, published 2006)",
  "origin": "cited, not measured here",
  "data": [
    {"smiles": "Sc1ncnc2nc[nH]c12", "note": "[6-MP, 6-mercaptopurine]", "values": [
      {"measurement": "fraction of an oral dose absorbed", "result": "Approximately 50%"}
    ]}
  ]
}
